Experiments:
BaF3 = assay: Antiproliferative activity against mouse BAF3 cells harboring CCDC6-RET fusion protein after 72 hrs by CCK8 assay; conditions: BaF3, 72 h
[1] = target: Proto-oncogene tyrosine-protein kinase receptor Ret (Homo sapiens, UniProt P07949); assay: Inhibition of recombinant RET (unknown origin) using poly (Glu,Tyr) 4:1 substrate after 60 mins by ELISA
[2] = target: Proto-oncogene tyrosine-protein kinase receptor Ret (Mus musculus) (UniProt P35546); assay: Inhibition of RET in mouse BAF3 cells harboring CCDC6-RET fusion protein assessed as suppression of STAT3 phosphorylation after 2 hrs by Western blot method; format: cell-based
Chain of Proto-oncogene tyrosine-protein kinase receptor Ret (Mus musculus) (P35546 whole entry, the tested form may be a part): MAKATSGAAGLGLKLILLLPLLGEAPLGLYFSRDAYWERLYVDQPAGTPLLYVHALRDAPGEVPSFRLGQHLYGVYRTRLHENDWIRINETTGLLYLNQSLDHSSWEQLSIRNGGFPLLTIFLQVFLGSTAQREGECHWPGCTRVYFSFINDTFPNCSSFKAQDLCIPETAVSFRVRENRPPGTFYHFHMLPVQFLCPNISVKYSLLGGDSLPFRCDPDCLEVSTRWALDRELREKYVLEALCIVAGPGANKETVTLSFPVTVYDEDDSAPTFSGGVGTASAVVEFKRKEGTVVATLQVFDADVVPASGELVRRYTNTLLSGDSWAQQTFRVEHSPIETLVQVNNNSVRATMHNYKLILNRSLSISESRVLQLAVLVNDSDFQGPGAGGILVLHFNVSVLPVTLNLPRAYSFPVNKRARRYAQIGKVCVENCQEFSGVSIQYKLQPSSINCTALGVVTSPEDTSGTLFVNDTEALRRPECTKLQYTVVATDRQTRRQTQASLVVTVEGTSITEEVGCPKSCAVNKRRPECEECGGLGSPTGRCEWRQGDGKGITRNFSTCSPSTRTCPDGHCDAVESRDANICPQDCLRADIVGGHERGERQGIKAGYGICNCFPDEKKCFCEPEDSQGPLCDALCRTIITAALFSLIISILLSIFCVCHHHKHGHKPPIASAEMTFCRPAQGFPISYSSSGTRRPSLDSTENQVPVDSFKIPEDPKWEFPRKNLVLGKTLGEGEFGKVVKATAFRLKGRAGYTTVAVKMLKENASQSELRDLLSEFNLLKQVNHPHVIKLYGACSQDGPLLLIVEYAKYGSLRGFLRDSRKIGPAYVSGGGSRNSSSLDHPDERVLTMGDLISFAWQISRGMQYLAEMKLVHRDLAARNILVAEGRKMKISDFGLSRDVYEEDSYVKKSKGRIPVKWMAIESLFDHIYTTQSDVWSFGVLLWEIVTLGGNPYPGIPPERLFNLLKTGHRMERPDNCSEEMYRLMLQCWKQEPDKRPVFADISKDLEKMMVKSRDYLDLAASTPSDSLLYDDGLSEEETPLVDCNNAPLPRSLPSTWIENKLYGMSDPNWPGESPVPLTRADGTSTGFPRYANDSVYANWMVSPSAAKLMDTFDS

[3] = target: Proto-oncogene tyrosine-protein kinase receptor Ret (Mus musculus) (UniProt P35546); assay: Inhibition of RET phosphorylation in mouse BAF3 cells harboring CCDC6-RET fusion protein after 2 hrs by Western blot method; format: cell-based
[4] = target: Vascular endothelial growth factor receptor 2 (Homo sapiens, UniProt P35968); assay: Inhibition of VEGFR2 (unknown origin) at 1 uM
Chain of Vascular endothelial growth factor receptor 2 (P35968 whole entry, the tested form may be a part): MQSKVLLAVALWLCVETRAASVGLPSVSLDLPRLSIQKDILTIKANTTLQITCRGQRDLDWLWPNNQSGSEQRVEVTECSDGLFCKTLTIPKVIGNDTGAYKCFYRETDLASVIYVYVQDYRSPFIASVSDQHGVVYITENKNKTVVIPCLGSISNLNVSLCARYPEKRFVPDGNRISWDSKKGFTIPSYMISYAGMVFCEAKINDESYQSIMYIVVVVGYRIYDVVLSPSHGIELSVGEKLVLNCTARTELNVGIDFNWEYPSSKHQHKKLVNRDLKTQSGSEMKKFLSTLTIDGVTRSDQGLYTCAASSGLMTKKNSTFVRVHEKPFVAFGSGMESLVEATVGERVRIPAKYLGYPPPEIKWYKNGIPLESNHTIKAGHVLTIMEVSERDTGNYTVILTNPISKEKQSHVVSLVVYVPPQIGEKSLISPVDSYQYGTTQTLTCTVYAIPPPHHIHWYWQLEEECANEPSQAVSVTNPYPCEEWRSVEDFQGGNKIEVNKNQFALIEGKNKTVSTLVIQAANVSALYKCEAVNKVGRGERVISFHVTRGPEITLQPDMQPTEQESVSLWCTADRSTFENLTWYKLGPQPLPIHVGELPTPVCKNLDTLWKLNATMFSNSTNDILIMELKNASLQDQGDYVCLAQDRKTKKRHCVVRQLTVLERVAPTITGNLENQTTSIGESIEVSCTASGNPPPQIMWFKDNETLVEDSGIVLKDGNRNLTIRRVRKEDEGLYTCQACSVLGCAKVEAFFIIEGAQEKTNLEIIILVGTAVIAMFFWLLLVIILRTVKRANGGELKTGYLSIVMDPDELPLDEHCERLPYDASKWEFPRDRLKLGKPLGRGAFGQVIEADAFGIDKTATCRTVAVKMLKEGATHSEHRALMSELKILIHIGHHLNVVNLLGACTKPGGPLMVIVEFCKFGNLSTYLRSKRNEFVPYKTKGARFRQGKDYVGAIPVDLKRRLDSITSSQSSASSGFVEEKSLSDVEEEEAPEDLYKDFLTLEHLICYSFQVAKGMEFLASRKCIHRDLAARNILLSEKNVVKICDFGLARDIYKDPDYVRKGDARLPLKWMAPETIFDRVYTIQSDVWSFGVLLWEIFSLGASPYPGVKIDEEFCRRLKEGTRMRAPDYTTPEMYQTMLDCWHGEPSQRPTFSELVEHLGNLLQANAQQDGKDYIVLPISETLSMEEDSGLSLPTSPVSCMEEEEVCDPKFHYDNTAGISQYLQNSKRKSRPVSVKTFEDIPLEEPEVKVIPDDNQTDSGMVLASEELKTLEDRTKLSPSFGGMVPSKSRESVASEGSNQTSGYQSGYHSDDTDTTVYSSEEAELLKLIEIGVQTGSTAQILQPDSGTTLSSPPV

[5] = target: Proto-oncogene tyrosine-protein kinase receptor Ret (Mus musculus) (UniProt P35546); assay: Inhibition of RET in mouse BAF3 cells harboring CCDC6-RET fusion protein assessed as suppression of RET phosphorylation after 2 hrs by Western blot method; format: cell-based
[6] = target: Proto-oncogene tyrosine-protein kinase receptor Ret (Mus musculus) (UniProt P35546); assay: Inhibition of RET in mouse BAF3 cells harboring CCDC6-RET fusion protein assessed as suppression of AKT phosphorylation after 2 hrs by Western blot method; format: cell-based

Chain of Proto-oncogene tyrosine-protein kinase receptor Ret (P07949 whole entry, the tested form may be a part): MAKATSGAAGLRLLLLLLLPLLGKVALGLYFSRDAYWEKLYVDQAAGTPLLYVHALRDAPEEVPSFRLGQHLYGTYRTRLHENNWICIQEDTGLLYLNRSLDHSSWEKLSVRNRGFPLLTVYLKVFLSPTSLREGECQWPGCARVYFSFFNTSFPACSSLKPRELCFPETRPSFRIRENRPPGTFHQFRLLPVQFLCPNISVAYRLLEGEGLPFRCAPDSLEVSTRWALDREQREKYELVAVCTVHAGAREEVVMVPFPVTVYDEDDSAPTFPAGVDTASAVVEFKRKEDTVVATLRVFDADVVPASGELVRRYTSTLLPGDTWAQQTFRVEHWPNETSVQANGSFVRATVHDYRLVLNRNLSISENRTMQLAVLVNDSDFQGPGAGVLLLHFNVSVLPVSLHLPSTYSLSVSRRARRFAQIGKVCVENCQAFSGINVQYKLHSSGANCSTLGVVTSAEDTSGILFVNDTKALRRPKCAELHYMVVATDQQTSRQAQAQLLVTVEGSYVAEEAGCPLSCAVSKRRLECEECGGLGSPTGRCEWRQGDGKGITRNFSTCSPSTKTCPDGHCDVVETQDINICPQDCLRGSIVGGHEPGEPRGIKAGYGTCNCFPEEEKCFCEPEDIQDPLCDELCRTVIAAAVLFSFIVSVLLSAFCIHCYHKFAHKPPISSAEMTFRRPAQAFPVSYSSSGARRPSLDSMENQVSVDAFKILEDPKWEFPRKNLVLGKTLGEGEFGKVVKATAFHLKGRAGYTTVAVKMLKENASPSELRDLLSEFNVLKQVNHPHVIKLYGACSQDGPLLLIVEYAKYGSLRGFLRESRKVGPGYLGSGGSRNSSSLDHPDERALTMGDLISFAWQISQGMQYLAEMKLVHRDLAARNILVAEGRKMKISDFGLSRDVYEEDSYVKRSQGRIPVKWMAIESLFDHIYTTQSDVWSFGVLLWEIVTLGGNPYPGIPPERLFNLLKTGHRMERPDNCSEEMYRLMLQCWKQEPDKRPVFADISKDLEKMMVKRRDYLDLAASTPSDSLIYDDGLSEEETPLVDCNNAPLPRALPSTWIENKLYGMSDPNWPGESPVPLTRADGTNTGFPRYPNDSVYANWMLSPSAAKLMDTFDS

IC50 (BaF3)	IC50 [1]	inhibition [2]	inhibition [3]	inhibition (INH) [4]	inhibition [5]	inhibition [6]	Compound
> 1000 nM	56.5 nM	–	–	–	–	–	CC(C)n1nc(C#Cc2ccccc2)c2c(N)ncnc21
433 nM	–	Dose-dependent effect	Dose-dependent effect	Not Active	Dose-dependent effect	Dose-dependent effect	CC(O)c1cc(-c2nn(C(C)C)c3ncnc(N)c23)no1 (centres undefined)
454 nM	–	–	–	–	–	–	CC(C)n1nc(-c2cc(CO)on2)c2c(N)ncnc21

From ChEMBL document CHEMBL4028821, “Synthesis and structure-activity relationship study of pyrazolo[3,4-d]pyrimidines as tyrosine kinase RET inhibitors” (Bioorg Med Chem Lett, 2017)
